{
  "source": "patent US8895756B2",
  "about": "“Bendamustine pharmaceutical compositions” (priority 2005, dated 2014)",
  "origin": "cited, not measured here",
  "details": "pure tertiary butanol vs pure acetic acid, dimethyl sulfoxide, methylhydroxy, water or TBA/water mixtures; cited from earlier work",
  "data": [
    {"smiles": "CN(CC(N)=O)C(=O)N(CCCl)N=O", "note": "[SarCNU]", "values": [
      {"measurement": "relative stability in solvents", "value": "more stable in pure tertiary butanol"}
    ]}
  ]
}
